From patent US11891634B2, “PDE5A destabilizing domains” (The Board of Trustees of the Leland Stanford Junior …, priority 2017, dated 2024) come the findings set out here.

For experiment [1], the system named is NIH3T3 cells expressing AcGFP-PDE5A fusions. The experiment can be described thus: FACS analysis of C-terminal PDE5A mutants (AcGFP-PDE5A fusions), Sildenafil vs vehicle. The experiment is classed as cell-based, mouse. The note with it: for Mean Fluorescence intensity: NIH3T3; for Stabilization ratio: Sildenafil 10 μM vs vehicle alone; for basal expression in the absence of ligand (in words): extended PDE5A variants, NIH3T3, no Sildenafil. How it is done: (§1) The NIH3T3 cell line was cultured in DMEM supplemented with 10% heat-inactivated donor bovine serum (Invitrogen), 2 mM glutamine, 100 U/ml penicillin and 100 μg/ml streptomycin.
(§2) The ΦNX ecotropic packaging cell line was transfected using standard Lipofectamine 2000 protocols. Viral supernatants were harvested 48 hours, post transfection, filtered and concentrated 10-fold using Amicon Ultra centrifugal filter device with a 100kDa cutoff. NIH 3T3 cells were incubated with concentrated retroviral supernatants supplemented with 4 μg/ml polybrene for 4 hours at 37° C. Cells were washed once with PBS and cultured in growth media for 24-36 hours to allow for viral integration.
(§3) The transduced NIH3T3 cells were subjected to analysis using fluorescence-activated cell sorting (FACS) to screen the libraries of PDE5A mutants. 24 hours prior to analysis, transduced NIH3T3 cells were plated at 1×10^5 cells per well of a 12-well plate. Cells were removed from the plate using PBS and 2 mM EDTA, washed once with PBS, and resuspended in 200 μL, PBS. FACS analysis was performed on instruments at the Stanford Shared FACS Facility with 10,000 events represented.
(§4) To identify destabilizing domains that are responsive to the PDE5A ligand, Sildenafil, a cell-based screening assay was employed in which the fluorescence of green fluorescent protein derived from Aequorea coerulescens (AcGFP) served as an indicator of PDE5A stability. A library based on the PDE5A catalytic domain sequences was generated using error prone PCR and then cloned in-frame in front of AcGFP. A Moloney murine leukemia retroviral expression was used to stably integrate this library of PDE5A-AcGFP fusions into NIH-3T3 fibroblasts, and the transduced cells were subjected to three rounds of sorting using flow cytometry. In the first round, cells were treated with 10 μM of PDE5A ligand, Sildenafil for 16-24 before analysis. Fluorescent cells were collected and further cultured in the absence of ligand for 60 hours.
(§5) A library of AcGFP-PDE5A fusions i.e., C-terminal PDE5A mutants was screened using the cell-based screening assay described previously to identify C-terminal destabilizing domains. […] Identified candidates were subjected to further characterization by FACS. Cells were split into two treatment groups and incubated with either Sildenafil (10 μM) or vehicle alone for 24 hours. Cells that were mock transduced or transduced with the wild-type PDE5A construct were also included in the analysis. The stabilization ratio was calculated as the fold change in GFP intensity of the AcGFP-PDE5A construct in Sildenafil treated sample compared to vehicle alone treated sample. The results are presented in Table 2 where the C terminal PDE5A mutants are denoted as PDE5AC.
Residue D764 was identified as a mutational hotspot from sequence analysis. PDE5AC (#41) was engineered with either D764N or D764G mutation via site-directed mutagenesis. PDE5AC (#41) +D764N comprises the amino acid sequence of SEQ ID NO. 53 (encoded by SEQ ID NO. 54) and PDE5AC (#41) +D764G comprises the amino acid sequence of SEQ ID NO. 55 (encoded by SEQ ID NO. 56). AcGFP-PDE5A variants were evaluated for Sildenafil dependent stabilization via FACS as described previously. Results from FACS analysis are presented in Table 4 where the C terminal PDE5A mutants are denoted as PDE5AC. The stabilization ratio was calculated as the fold change in GFP intensity of the AcGFP-PDE5A construct in Sildenafil treated sample compared to vehicle alone treated sample.
Extended versions of human PDE5A that included residues in addition to catalytic domain (residues 535-860 of SEQ ID NO. 1) with Q589R polymorphism (SEQ ID NO. 11) were evaluated for use as C-terminal destabilizing domains. Three extended PDE5A sequences were tested that consisted of residues 535-875 of SEQ ID NO. 1 with Q589R polymorphism (SEQ ID NO. 13); residues 466-875 of SEQ ID NO. 1 with Q589R polymorphism (SEQ ID NO. 15); or residues 420-875 of SEQ ID NO. […]
(In general: In flow cytometry, cells or beads pass a laser one at a time.)

For another experiment, the system named is PDE5A-AcGFP fusions. The experiment in a line: FACS analysis of N-terminal PDE5A mutants (PDE5A-AcGFP fusions), Sildenafil vs vehicle. The experiment is classed as cell-based, mouse. The note with it: 24 hours; for Stabilization ratio: Sildenafil 20 μM vs vehicle alone; for Mean Fluorescence Intensity (MFI) Sildenafil (20 μM) / Mean Fluorescence Intensity (MFI) Vehicle control: NIH3T3; for Mean Fluorescence Intensity (MFI) Vehicle control: vehicle alone. Here is the method: as §1, §2, §3, §4
as §5, with “PDE5A-AcGFP” for “AcGFP-PDE5A”, “N-terminal” for “C-terminal”, “mutants,” for “mutants”, “(20” for “(10”, “The results are presented in Table 6 where the N terminal PDE5A mutants are denoted as PDE5AN. The” for “The”, “sample.” for “sample. The results are presented in Table 2 where the C terminal PDE5A mutants are denoted as PDE5AC.”

[2] abbreviates: Table 5 (extended variants), Sildenafil (10 μM) +.
The mark [3] stands for this setting: Table 5 (extended variants), Sildenafil (10 μM) −.
Setting [4] is: Table 2, Sildenafil (10 μM) +, 24 hours.
[5] abbreviates: Table 2, Sildenafil (10 μM) −, vehicle alone, 24 hours.
Setting [6] is: Table 2, fold change in GFP intensity, 24 hours.
[7] abbreviates: Table 4 (D764 mutations), Sildenafil (10 μM) +.
Setting [8] is: Table 4 (D764 mutations), Sildenafil (10 μM) −.

As for “PDE5AC 420-875 (Q589R): AcGFP fused to residues 420-875 of SEQ ID NO. 1 with Q589R polymorphism, SEQ ID NO. 17”, the “Mean Fluorescence intensity” value in experiment [1] (setting [2]) amounted to 572; in experiment [1] (setting [3]), 620. Further, the Stabilization ratio in experiment [1] (Table 5) is on record as 0.9. For the same substance, in experiment [1], the “basal expression in the absence of ligand (in words)” value (from here on “basal expression in the absence”) is given as “low basal expression”.

In the case of “PDE5AC 466-875 (Q589R): AcGFP fused to residues 466-875 of SEQ ID NO. 1 with Q589R polymorphism, SEQ ID NO. 15”, the “Mean Fluorescence intensity” value is on record as 888 in experiment [1] (setting [2]) and 819 in experiment [1] (setting [3]). In addition, the Stabilization ratio in experiment [1] (Table 5) was determined as 1.1. Also, the “basal expression in the absence” value in experiment [1] is reported as “low basal expression”.

As for “PDE5AC 535-860 (Q589R): AcGFP fused to PDE5A catalytic domain residues 535-860 with Q589R polymorphism, SEQ ID NO. 11 [reference compound]”, the “Mean Fluorescence intensity” value was determined as 8557 in experiment [1] (setting [2]) and 8431 in experiment [1] (setting [3]). The Stabilization ratio in experiment [1] (Table 5) turned out to be 1.0. In addition, the “basal expression in the absence” value in experiment [1] is reported as “high basal expression”.

For “PDE5AC 535-875 (Q589R): AcGFP fused to residues 535-875 of SEQ ID NO. 1 with Q589R polymorphism, SEQ ID NO. 13”, the figures for the “Mean Fluorescence intensity” value in experiment [1] (setting [2]) and in experiment [1] (setting [3]) were 6462 and 6761, respectively. Besides, the Stabilization ratio in experiment [1] (Table 5) stood at 1.0. Moreover, the “basal expression in the absence” value in experiment [1] is on record as “high basal expression”.

With “PDE5AC (#8): AcGFP fused to C-terminal DD 535-860 of PDE5A (F561L, F564L, Q589R, D724N, S766F, T802P), SEQ ID NO. 34”, the “Mean Fluorescence intensity” value in experiment [1] (setting [4]) was determined as 3310; in experiment [1] (setting [5]), 1066. Moreover, the Stabilization ratio in experiment [1] (setting [6]) stood at 3.1.

For the substance “PDE5AC (#40): AcGFP fused to C-terminal DD 535-860 of PDE5A (Q589R, D764G), SEQ ID NO. 26”, the “Mean Fluorescence intensity” value in experiment [1] (setting [4]) turned out to be 5923; in experiment [1] (setting [5]), 1255; in experiment [1] (setting [7]), 4229; in experiment [1] (setting [8]), 917. Besides, the Stabilization ratio amounted to 4.7 in experiment [1] (setting [6]) and 4.6 in experiment [1] (Table 4).

As to “PDE5AC (#41) + D764G: PDE5AC (#41) engineered with D764G mutation, SEQ ID NO. 55”, the results for the “Mean Fluorescence intensity” value in experiment [1] (setting [7]) and in experiment [1] (setting [8]) were 730 and 709, respectively. Also, the Stabilization ratio in experiment [1] (Table 4) worked out at 1.0.

As for “PDE5AC (#41) + D764N: PDE5AC (#41) engineered with D764N mutation, SEQ ID NO. 53”, the “Mean Fluorescence intensity” value in experiment [1] (setting [7]) is reported as 1007; in experiment [1] (setting [8]), 684. In addition, the Stabilization ratio in experiment [1] (Table 4) was found to be 1.5.

As for “PDE5AN (#19): N-terminal DD 535-860 of PDE5A (Q589R, I599V, T711A, F744L, L746S, L804P), SEQ ID NO. 31, fused to AcGFP”, in the experiment with PDE5A-AcGFP fusions, the “Stabilization ratio” value was determined as 2.86, the “Mean Fluorescence Intensity (MFI) Sildenafil (20 μM)” value came to 4297 and the “Mean Fluorescence Intensity (MFI) Vehicle control” value is reported as 1502.

Consider “PDE5AN (#30): N-terminal DD 535-860 of PDE5A (Q589R, L675P, F755L), SEQ ID NO. 69, fused to AcGFP”, for which, in the experiment on PDE5A-AcGFP fusions, the “Stabilization ratio” value turned out to be 4.46, the “Mean Fluorescence Intensity (MFI) Sildenafil (20 μM)” value is on record as 4713 and the “Mean Fluorescence Intensity (MFI) Vehicle control” value is given as 1056.

Turning to “PDE5AN (#35): N-terminal DD 535-860 of PDE5A (S560G, V585A, N587S, Q589R, K591E, S663P, F840S), SEQ ID NO. 32, fused to AcGFP”, in the experiment with PDE5A-AcGFP fusions, the “Stabilization ratio” value stood at 2.50, the “Mean Fluorescence Intensity (MFI) Sildenafil (20 μM)” value was determined as 3684 and the “Mean Fluorescence Intensity (MFI) Vehicle control” value turned out to be 1476.

As to “PDE5AN (#55): N-terminal DD 535-860 of PDE5A (Q589R, I648V, M816T), SEQ ID NO. 33, fused to AcGFP”, in the experiment on PDE5A-AcGFP fusions, the “Stabilization ratio” value was determined as 2.87, the “Mean Fluorescence Intensity (MFI) Sildenafil (20 μM)” value was determined as 3602 and the “Mean Fluorescence Intensity (MFI) Vehicle control” value worked out at 1257.

Regarding “PDE5AN (#57): N-terminal DD 535-860 of PDE5A (N587S, Q589R, K608E, N661S, D764V), SEQ ID NO. 68, fused to AcGFP”, in the experiment on PDE5A-AcGFP fusions, the “Stabilization ratio” value is recorded as 7.6, the “Mean Fluorescence Intensity (MFI) Sildenafil (20 μM)” value stood at 5851 and the “Mean Fluorescence Intensity (MFI) Vehicle control” value is recorded as 770.
